Assay results taken from patent US5985837A, “Dolastatin 15 derivatives” (BASF Aktiengesellschaft, priority 1998, dated 1999).
pIC50: −log10 of the molar value.

Test system: not given
Assay: not given
Conditions: background statement on Dolastatin 15; cited from earlier work

Question: For Dolastatin 15, which “solubility in aqueous systems” value is on record?
Answer: poor solubility in aqueous systems

Test system: National Cancer Institute's P388 lymphocytic leukemia (PS system) cell line
Assay: not given
Conditions: background statement; cited from earlier work

Question: With Dolastatin 15 as the compound, how does the “inhibition of cell growth” value read?
Answer: markedly inhibits the growth

Test system: tumor cells such as the HT-29 colon carcinoma or LX-1 lung tumor
Assay: Cytotoxicity, microculture tetrazolium assay (MTT)
Format: cell-based
Conditions: 48 hours incubation, concentration giving T/C of 50% growth inhibition, cell line not given
Protocol: Cytotoxicity was measured using a standard methodology for adherent cell lines, such as the microculture tetrazolium assay (MTT). Details of this assay have been published (Alley, M. C. et al., Cancer Research 48:589-601, 1988). Exponentially growing cultures of tumor cells such as the HT-29 colon carcinoma or LX-1 lung tumor were used to make microtiter plate cultures. Cells were seeded at 5000-20,000 cells per well in 96-well plates (in […] of media), and grown overnight at 37° C. Test compounds were added, in 10-fold dilutions varying from 10^-4 M to 10^-10 M. Cells were then incubated for 48 hours. To determine the number of viable cells in each well, the MTT dye was added ([…] of a 3 mg/mL solution of 3-(4,5-dimethylthiazol-2-yl)-2,5-diphenyltetrazolium bromide in saline). This mixture was incubated at 37° C. for 5 hours, and then […] of 25% SDS, pH 2, was added to each well. After an overnight incubation, the absorbance of each well at 550 nm was read using an ELISA reader. The values for the mean ±SD of data from replicated wells were calculated, using the formula % T/C (% viable cells treated/control). The concentration of test compound which gives a T/C of 50% growth inhibition was designated as the IC50.

Question: With `CC(C)[C@H](NC(=O)[C@H](C(C)C)N(C)C)C(=O)N(C)[C@H](C(=O)N1CCC[C@H]1C(=O)Nc1ccccc1C(=O)NCCCO)C(C)C` [Compound I-86, 2-(Me2 Val-Val-MeVal-Pro-NH)--C6 H4 --CO--NH(--(CH2)3 --OH)] as the compound, how does the pIC50 read?
Answer: 6.22

Question: With “2-(Me2 Val-Val-MeVal-Pro-NH)--C6 H4 --CO--CH3 [IV-1]” as the compound, how does the pIC50 read?
Answer: < 6.00

Question: With `CC(C)[C@H](NC(=O)[C@H](C(C)C)N(C)C)C(=O)N(C)[C@H](C(=O)N1CCC[C@H]1C(=O)Nc1ccccc1C(=O)Nc1nccs1)C(C)C` [Compound I-5, 2-(Me2 Val-Val-MeVal-Pro-NH)--C6 H4 C(O)NH(thiazol-2-yl)] as the compound, how does the pIC50 read?
Answer: 6.82

Question: With `CNC(=O)c1cc(OC)c(OC)cc1NC(=O)[C@@H]1CCCN1C(=O)[C@H](C(C)C)N(C)C(=O)[C@@H](NC(=O)[C@H](C(C)C)N(C)C)C(C)C` [Compound I-6, 2-(Me2 Val-Val-MeVal-ProNH)-4,5-bis(methoxy)C6 H2 C(O)NHCH3] as the compound, how does the pIC50 read?
Answer: 6.70

Question: With `CC(C)[C@H](NC(=O)[C@H](C(C)C)N(C)C)C(=O)N(C)[C@H](C(=O)N1CCC[C@H]1C(=O)Nc1ccccc1C(=O)Nc1ccccc1)C(C)C` [Compound I-4, 2-(Me2 Val-Val-MeVal-Pro-NH)--C6 H4 C(O)NHC6 H5] as the compound, how does the pIC50 read?
Answer: 6.40

Question: With `CC(C)[C@H](NC(=O)[C@H](C(C)C)N(C)C)C(=O)N(C)[C@H](C(=O)N1CCC[C@H]1C(=O)Nc1ccccc1C(=O)NCCC(O)c1ccccc1)C(C)C` (stereo partly drawn) [Compound I-87, 2-(Me2 Val-Val-MeVal-Pro-NH)--C6 H4 C(O)NH((CH2)2 CH(C6 H5)OH)] as the compound, how does the pIC50 read?
Answer: 6.70

Question: With `CC(C)[C@H](NC(=O)[C@H](C(C)C)N(C)C)C(=O)N(C)[C@H](C(=O)N1CCC[C@H]1C(=O)Nc1ccccc1C(=O)NCc1ccccc1)C(C)C` [Compound I-2, 2-(Me2 Val-Val-MeVal-Pro-NH)--C6 H4 C(O)NHCH2 C6 H5] as the compound, how does the pIC50 read?
Answer: < 6.00

Question: With `CC(C)NC(=O)c1ccccc1NC(=O)[C@@H]1CCCN1C(=O)[C@H](C(C)C)N(C)C(=O)[C@@H](NC(=O)[C@H](C(C)C)N(C)C)C(C)C` [Compound I-3, 2-(Me2 Val-Val-MeVal-Pro-NH)--C6 H4 C(O)NHCH(CH3)2] as the compound, how does the pIC50 read?
Answer: 6.30

Question: With `CON(C)C(=O)c1ccccc1NC(=O)[C@@H]1CCCN1C(=O)[C@H](C(C)C)N(C)C(=O)[C@@H](NC(=O)[C@H](C(C)C)N(C)C)C(C)C` [Compound I-60, (2)-(Me2 Val-Val-MeVal-Pro-NH)-C6 H4 -CON(CH3) (OCH3)] as the compound, how does the pIC50 read?
Answer: 6.40

Question: With `CNC(=O)c1cccc(NC(=O)[C@@H]2CCCN2C(=O)[C@H](C(C)C)N(C)C(=O)[C@@H](NC(=O)[C@H](C(C)C)N(C)C)C(C)C)c1` [II-1, 3-(Me2 Val-Val-MeVal-Pro-NH)--C6 H4 --CO--NHCH3] as the compound, how does the pIC50 read?
Answer: < 6.00

Question: With `CC(C)[C@H](NC(=O)[C@H](C(C)C)N(C)C)C(=O)N(C)[C@H](C(=O)N1CCC[C@H]1C(=O)Nc1ccccc1C(=O)N1CCC(c2ccccc2)O1)C(C)C` (stereo partly drawn) [Compound I-64, 2-(Me2 Val-Val-MeVal-Pro-NH)--C6 H4 --CO--N(--(CH2)2 --CH(C6 H5)O--)] as the compound, how does the pIC50 read?
Answer: 6.60

Question: With `CNC(=O)c1ccccc1NC(=O)[C@@H]1CCCN1C(=O)[C@H](C(C)C)N(C)C(=O)[C@@H](NC(=O)[C@H](C(C)C)N(C)C)C(C)C` [Compound I-1, 2-(Me2 Val-Val-MeVal-Pro-NH)--C6 H4 C(O)NHCH3] as the compound, how does the pIC50 read?
Answer: 6.40

Question: With `CC(C)[C@H](NC(=O)[C@H](C(C)C)N(C)C)C(=O)N(C)[C@H](C(=O)N1CCC[C@H]1C(=O)Nc1ccccc1C(=O)c1ccccc1)C(C)C` [IV-15, 2-(Me2 Val-Val-MeVal-Pro-NH)--C6 H4 --CO--C6 H5] as the compound, how does the pIC50 read?
Answer: 7.15

Question: With `CC(C)[C@H](NC(=O)[C@H](C(C)C)N(C)C)C(=O)N(C)[C@H](C(=O)N1CCC[C@H]1C(=O)Nc1cccc(C(=O)NCc2ccccc2)c1)C(C)C` [II-2, 3-(Me2 Val-Val-MeVal-Pro-NH)--C6 H4 --CO--NH CH2 C6 H5] as the compound, how does the pIC50 read?
Answer: < 6.00
